Entries after “also recorded” stand apart in the source; their conditions may differ.

Assay type in all cases: cell-based, human
The test system of assay [1] is Mesenchymal stem cells. Nature of the assay: Alcian blue staining of paraffin sections of treated tissue. The settings on record: 100 ng/mL lipid modified sonic hedgehog; 21 days; Alcian blue pH 2.5. On the procedure:
(§1) Mesenchymal stem cell cultures were established, as described in detail above. Cells were cultured in the presence of 20% FBS, 1 ng/mL TGFβ-1, or 100 ng/mL lipid modified sonic hedgehog, and the medium was changed twice per week. After 21 days in culture, tissue was harvested, and fixed overnight in formaline solution. Fixed tissue was washed, dehydrated, embedded in paraffin, and 4 μm sections were cut using a microtome. Sections were mounted on adhesive slides, and processed for histology and immunohistochemistry.
Mounted paraffin sections were stained with Alcian blue. Sections were treated with Alcian blue, pH 2.5 and 3% Acetic acid for five minutes. Following treatment, the sections were washed with ultrapure water.

Assay [2] deals with Mesenchymal stem cells. Nature of the assay: Hematoxyline-eosine staining of paraffin sections of treated tissue. To be noted: 100 ng/mL lipid modified sonic hedgehog; 21 days. As to the method:
as §1
Mounted paraffin sections were stained with hematoxyline-eosine, and viewed under a light microscope.

Assay [3] has as its system Mesenchymal stem cells. In words: Immunohistochemistry of paraffin sections of treated tissue. To be noted: 100 ng/mL lipid modified sonic hedgehog; 21 days. As to the method: as §1
Mounted paraffin sections were processed for immunohistochemistry with an automatic stainer (DAKO TechMate™) using indirect streptavidin-biotin methods with a Fuchsintype chromogen. The following primary antibodies were used: vimentin, collagen II, Indian hedgehog, PTHrp, BMPR-IA, BMPR-IB, and BMPR-II. Immunohistochemistry was by standard methods except for the PTHrp antibody which required incubation of the tissue with proteinase K.

For assay [4], the system named is Mesenchymal stem cells. Nature of the assay: Change in mesenchymal stem cell behavior following factor treatment (culture observation). As to the method:
Mesenchymal stem cells were derived from human volunteers under general anesthesia. Bone marrow was harvested from the iliac crest by aspiration. Approximately 5 mL of bone marrow was suspended in essential medium containing 20% fetal bovine serum (FBS), antibiotics, and glutamine (Sigma). […] The non-adherent cells, as well as any debris, is easily separated from the adherent mesenchymal stem cells.
Mesenchymal stem cells were plated at a density of 1×10^6/mL in a six well plate. Following adhesion of the cells to the plate, cells were treated with either medium containing 20% FBS, with medium supplemented with TGFβ-1, or with medium supplemented with sonic hedgehog.
Following adhesion of cells to the plate, cells were treated with either medium containing 20% FBS (negative control), medium containing 1 ng/mL TGFβ-1, or medium containing 100 ng/mL of the lipid modified N-terminal fragment of sonic hedgehog. In all cases, the medium was changes twice per week throughout the duration of the experiment.

The mark [5] stands for this setting: 1 ng/mL TGFβ-1, after a week in culture.

Regarding sonic hedgehog, the “Alcian blue staining (acid mucopolysaccharids)” value in the assay on Mesenchymal stem cells [1] is “Positive”. The “tissue organization and matrix production (hematoxyline-eosine, light microscope)” value with Mesenchymal stem cells [2] is “extensive organization of the tissue, the intricate folding of the layers, and the abundant matrix production; also recorded: highly organized, contains several folded layers, and produces abundant matrix”. Further, in the assay on Mesenchymal stem cells [3], the BMPR-IA immunostaining entry is on record as “not detected; also recorded: immunonegative”, the BMPR-IB immunostaining entry is given as “immunopositive”, the BMPR-II immunostaining entry was “immunopositive” and the Indian hedgehog immunostaining result was “immunonegative”. In addition, in the assay on Mesenchymal stem cells [3], the PTHrp immunostaining entry is “immunopositive”, the “collagen II immunostaining” value is listed as “strongly expressed; also recorded: strongly immunopositive” and the vimentin immunostaining entry is “strongly immunopositive”. Besides, the “cell migration and clustering in the culture well” value in the assay with Mesenchymal stem cells [4] (100 ng/mL lipid modified N-terminal fragment of sonic hedgehog, after the first two weeks in culture) was “appeared to migrate and clustered in one half the area of the culture well”. The “formation of a ball of tissue from the cell cluster” value with Mesenchymal stem cells [4] (100 ng/mL lipid modified N-terminal fragment of sonic hedgehog, approximately three weeks in culture) is “condensed and migrated to form a small ball; also recorded: formed a grayish-white ball”. Also, the “cell proliferation in culture” value in the assay with Mesenchymal stem cells [4] (100 ng/mL lipid modified N-terminal fragment of sonic hedgehog, first two weeks in culture) is “proliferated efficiently”.
On to “TGFβ-1: TGFβ family polypeptide, added to the culture medium at 1 ng/mL”, for which, in the assay on Mesenchymal stem cells [4] (setting [5]), the cell morphology result is on record as “morphologically distinct” and the cell size entry was “larger”. Besides, the “proliferative effects on mesenchymal stem cells” value in the assay on Mesenchymal stem cells [4] (treatment with TGFβ-1) is given as “robust proliferative effects”.

These data come from patent publication US7160725B2, “Hedgehog signaling promotes the formation of three dimensional cartilage matrices” (Curis, Inc., priority 2001, dated 2007).
